{"source": "ChEMBL document CHEMBL1144912", "about": "“Anticancer activity of phenolic acids of natural or synthetic origin: a structure-activity study” (2003)", "key": {"[1]": {"test_system": "MOLT-3", "assay": "Percent reduction in cell viability of MOLT-3 cells 72 hr after incubation with 50 uM of compound", "type": "functional, Homo sapiens"}, "[2]": {"test_system": "L132", "assay": "Percent reduction in cell viability of L-132 cells 72 hr after incubation with 100 uM of compound", "type": "functional, Homo sapiens"}, "[3]": {"test_system": "MDA-MB-231", "assay": "Percent reduction in cell viability of MDA-MB-231 cells 72 hr after incubation with compound", "type": "functional, Homo sapiens"}, "[4]": {"test_system": "HeLa", "assay": "Percent reduction in cell viability of HeLa cells 72 hr after incubation with 100 uM of compound", "type": "functional, Homo sapiens"}, "[5]": {"test_system": "MOLT-3", "assay": "Percent reduction in cell viability of MOLT-3 cells 72 hr after incubation with 100 uM of compound", "type": "functional, Homo sapiens"}, "[6]": {"test_system": "HeLa", "assay": "Cytotoxic effect of compound measured as cell density of HeLa cells 72 hrs after incubation with compound compared to a initial density of […] cells/mL", "type": "functional, Homo sapiens"}, "[7]": {"test_system": "MOLT-3", "assay": "Percent reduction in cell viability of MOLT-3 cells 48 hr after incubation with the compound", "type": "functional, Homo sapiens"}, "[8]": {"test_system": "MDA-MB-231", "assay": "Percent reduction in cell viability of MDA-MB-231 cells 48 hr after incubation with compound", "type": "functional, Homo sapiens"}, "[9]": {"test_system": "HeLa", "assay": "Percent reduction in cell viability of HeLa cells 72 hr after incubation with compound", "type": "functional, Homo sapiens"}, "[10]": {"test_system": "MOLT-3", "assay": "Percent reduction in cell viability of MOLT-3 cells 72 hr after incubation with the compound", "type": "functional, Homo sapiens"}, "[11]": {"test_system": "L132", "assay": "Concentration for low cytotoxic activity against L-132 cell line; Range is 50-100 uM", "type": "functional, cell-based", "conditions": "Homo sapiens"}, "[12]": {"test_system": "MDA-MB-231", "assay": "Concentration for low cytotoxic activity against MDA-MB-231 cell line; Range is 50-100 uM", "type": "functional, cell-based", "conditions": "Homo sapiens"}, "[13]": {"test_system": "HeLa", "assay": "Concentration for low cytotoxic activity against HeLa cell line; Range is 50-100 uM", "type": "functional, cell-based", "conditions": "Homo sapiens"}, "[14]": {"test_system": "MOLT-3", "assay": "Concentration for low cytotoxic activity against MOLT-3 cell line; Range is 50-100 uM", "type": "functional, cell-based", "conditions": "Homo sapiens"}}}
{"compound": "O=C(O)Cc1ccc(O)c(O)c1", "note": "[3,4-DIHYDROXYPHENYLACETIC ACID]", "values": [{"measurement": "Reduction", "setting": "[1]", "value": 75, "unit": "%"}]}
{"compound": "O=C(O)Cc1cc(O)c(O)c(O)c1", "values": [{"measurement": "Reduction", "setting": "[2]", "value": 50, "unit": "%"}, {"measurement": "Reduction", "setting": "[3]", "value": 60, "unit": "%"}, {"measurement": "Reduction", "setting": "[4]", "value": 80, "unit": "%"}, {"measurement": "Reduction", "setting": "[5]", "value": 47, "unit": "%"}]}
{"compound": "O=C(O)CCc1ccc(O)c(O)c1", "note": "[DIHYDROCAFFEIC ACID]", "values": [{"measurement": "Cell density", "setting": "[6]", "value": 500000, "unit": "cells ml-1"}]}
{"compound": "O=C(O)CCc1cc(O)c(O)c(O)c1", "values": [{"measurement": "Reduction", "setting": "[7]", "value": 45, "unit": "%"}, {"measurement": "Reduction", "setting": "[8]", "value": 55, "unit": "%"}]}
{"compound": "O=C(O)c1cc(O)c(O)c(O)c1", "note": "[GALLIC ACID]", "values": [{"measurement": "Reduction", "setting": "[9]", "value": 74, "unit": "%"}, {"measurement": "Reduction", "setting": "[3]", "value": 65, "unit": "%"}, {"measurement": "Reduction", "setting": "[10]", "value": 50, "unit": "%"}]}
{"compound": "O=C(O)/C=C/c1ccc(O)c(OO)c1", "values": [{"measurement": "Concentration", "setting": "[11]", "value": 100, "unit": "µM"}, {"measurement": "Concentration", "setting": "[12]", "value": 100, "unit": "µM"}, {"measurement": "Concentration", "setting": "[13]", "value": 100, "unit": "µM"}, {"measurement": "Concentration", "setting": "[14]", "value": 100, "unit": "µM"}]}
